Laboratory results reported in patent US11247980B2, “Herbicidal uracilpyrid” (BASF SE, priority 2017, dated 2022).

Legend:
[1] = tested on: resistant weeds containing the ΔG210 mutation (w.3); experiment: greenhouse experiment, control of resistant weeds: resistant biotype; assay type: in vivo; conditions: for weed control (%) w.3: AMATA Amaranthus tamariscinus, PPO resistant biotype 2 (ΔG210 mutation); for activity on resistant weeds containing the ΔG210 mutation (w.3): greenhouse, scale from 0 to 100
From the text: (§1) The culture containers used were plastic flowerpots containing loamy sand with approximately 3.0% of humus as the substrate. The seeds of the test plants were sown separately for each species and/or resistant biotype. For the pre-emergence treatment, the active ingredients, which had been suspended or emulsified in water, were applied directly after sowing by means of finely distributing nozzles. The containers were irrigated gently to promote germination and growth and subsequently covered with transparent plastic hoods until the plants had rooted. This cover caused uniform germination of the test plants, unless this had been impaired by the active ingredients. For the post-emergence treatment, the test plants were first grown to a height of 3 to 15 cm, depending on the plant habit, and only then treated with the active ingredients which had been suspended or emulsified in water. For this purpose, the test plants were either sown directly and grown in the same containers, or they were first grown separately as seedlings and transplanted into the test containers a few days prior to treatment. Depending on the species, the plants were kept at 10-25° C. or 20-35° C., respectively. The test period extended over 2 to 4 weeks. During this time, the plants were tended, and their response to the individual treatments was evaluated. The evaluation was carried out by using a scale from 0 to 100. 100 means no emergence of the plants or complete destruction of at least the above-ground parts, and 0 means no damage, or normal course of growth.
(§2) The plants used in the greenhouse experiments were of the following species and biotype: […]

[2] = tested on: resistant weeds containing the ΔG210 mutation (w.2); experiment: as above; assay type: in vivo; conditions: for weed control (%) w.2: AMATA Amaranthus tamariscinus, PPO resistant biotype 1 (ΔG210 mutation); for activity on resistant weeds containing the ΔG210 mutation (w.2): greenhouse, scale from 0 to 100
From the text: as §1, §2

sensitive (w.1) = experiment: greenhouse experiment, control of resistant weeds: sensitive biotype; assay type: in vivo; conditions: for weed control (%) w.1: AMATA Amaranthus tamariscinus, sensitive biotype; for activity on sensitive weeds (w.1): greenhouse, scale from 0 to 100
From the text: as §1, §2

BRADC = experiment: greenhouse experiments, herbicidal activity, post-emergence treatment; assay type: in vivo, Brachiaria decumbens; conditions: application rate 2 g/ha, scale 0 to 100
From the text: (§3) The culture containers used were plastic flowerpots containing loamy sand with approximately 3.0% of humus as the substrate. The seeds of the test plants were sown separately for each species.
(§4) For the pre-emergence treatment, the active ingredients, which had been suspended or emulsified in water, were applied directly after sowing by means of finely distributing nozzles. The containers were irrigated gently to promote germination and growth and subsequently covered with transparent plastic hoods until the plants had rooted. This cover caused uniform germination of the test plants, unless this had been impaired by the active ingredients. For the post-emergence treatment, the test plants were first grown to a height of 3 to 15 cm, depending on the plant habit, and only then treated with the active ingredients which had been suspended or emulsified in water. For this purpose, the test plants were either sown directly and grown in the same containers, or they were first grown separately as seedlings and transplanted into the test containers a few days prior to treatment.
(§5) Depending on the species, the plants were kept at 10-25° C. or 20-35° C., respectively. The test period extended over 2 to 4 weeks. During this time, the plants were tended, and their response to the individual treatments was evaluated.
(§6) Evaluation was carried out using a scale from 0 to 100. […]

LOLMU = experiment: as above; assay type: in vivo, Lolium multiflorum; conditions: application rate 8 g/ha, scale 0 to 100
From the text: as §3, §4, §5, §6

ZEAMX = experiment: greenhouse experiments, post-emergence treatment, crop compatibility; assay type: in vivo, Zea mays; conditions: crop plants ZEAMX, application rate 2 g/ha, scale 0 to 100
From the text: as §3, §4, §5, §6

CHEAL = experiment: greenhouse experiments, herbicidal activity, post-emergence treatment; assay type: in vivo, Chenopodium album; conditions: application rate 1 g/ha, scale 0 to 100
From the text: as §3, §4, §5, §6

MATCH = experiment: as above; assay type: in vivo, Matricaria chamomilla; conditions: application rate 8 g/ha, scale 0 to 100
From the text: as §3, §4, §5, §6

ALOMY = experiment: as above; assay type: in vivo, Alopecurus myosuroides; conditions: application rate 8 g/ha, scale 0 to 100
From the text: as §3, §4, §5, §6

SMILES	weed control (%) w.3 ([1]; use rate 2 g/ha) [%]	weed control (%) w.3 ([1]; use rate 4 g/ha) [%]	activity on resistant weeds containing the ΔG210 mutation (w.3) [1]	weed control (%) w.2 ([2]; use rate 2 g/ha) [%]	weed control (%) w.2 ([2]; use rate 4 g/ha) [%]	activity on resistant weeds containing the ΔG210 mutation (w.2) [2]	weed control (%) w.1 (sensitive (w.1); use rate 2 g/ha) [%]	weed control (%) w.1 (sensitive (w.1); use rate 4 g/ha) [%]	activity on sensitive weeds (w.1) (sensitive (w.1))	damages (BRADC)	damages (LOLMU)	damages (ZEAMX)	damages (CHEAL)	damages (MATCH)	damages (ALOMY)
C#CCOc1cc(-n2nc3n(c2=O)CCCC3)c(Cl)cc1Cl [azafenidin, reference compound]	77	77	much weaker control of resistant in comparison to sensitive biotypes	62	78	much weaker control of resistant in comparison to sensitive biotypes	88	100	–	–	–	–	–	–	–
CCOC(=O)COc1ccccc1Oc1nc(-n2c(=O)cc(C(F)(F)F)n(C)c2=O)c(F)cc1Cl [compound 1, Ethyl 2-[2-[[3-chloro-5-fluoro-6-[3-methyl-2,6-dioxo-4-(trifluoromethyl)pyrimidin-1-yl]-2-pyridyl]oxy]phenoxy]acetate]	98	100	very good activity	87	100	very good activity	88	100	very good activity	–	–	–	–	–	–
COC(=O)C(OC)Oc1ccccc1Oc1nc(-n2c(=O)cc(C(F)(F)F)n(C)c2=O)c(F)cc1Cl (centres unmarked) [compound 2, Methyl 2-[2-[[3-chloro-5-fluoro-6-[3-methyl-2,6-dioxo-4-(trifluoromethyl)pyrimidin-1-yl]-2-pyridyl]oxy]phenoxy]-2-methoxy-acetate]	–	–	–	–	–	–	–	–	–	80	70	25	90	70	70
CCOC(=O)COc1ncccc1Oc1nc(-n2c(=O)cc(C(F)(F)F)n(C)c2=O)c(F)cc1Cl [compound 7, Ethyl 2-[[3-[[3-chloro-5-fluoro-6-[3-methyl-2,6-dioxo-4-(trifluoromethyl)pyrimidin-1-yl]-2-pyridyl]oxy]-2-pyridyl]oxy]acetate]	100	100	very good activity	100	100	very good activity	93	100	very good activity	–	–	–	–	–	–
